From article doi:10.1101/2023.07.20.549922v1 (biorxiv, 2023)

T1: AmGSTD1 (Apis mellifera, UniProt A0A8U0Y9D4)
T1 sequence (A0A8U0Y9D4 1-240): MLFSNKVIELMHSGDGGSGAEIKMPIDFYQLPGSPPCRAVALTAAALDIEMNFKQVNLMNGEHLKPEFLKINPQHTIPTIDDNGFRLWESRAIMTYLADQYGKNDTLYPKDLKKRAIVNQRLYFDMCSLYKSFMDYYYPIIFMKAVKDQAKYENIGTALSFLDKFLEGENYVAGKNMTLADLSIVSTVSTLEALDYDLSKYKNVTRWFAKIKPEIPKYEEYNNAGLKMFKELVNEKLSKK

B1: AmGSTD1 (Apis mellifera) (protein)
chain: T1 sequence (A0A8U0Y9D4 1-240)

Legend:
AmGSTD1 [1] = target: T1, AmGSTD1; test: ANS displacement fluorescence, Ki from IC50; assay type: binding
AmGSTD1 [2] = target: T1, AmGSTD1; test: ANS displacement fluorescence; assay type: binding
AmGSTD1 [3] = target: T1, AmGSTD1; test: fluorescence saturation binding
AmGSTD1 [4] = target: T1, AmGSTD1; test: absorbance initial rates, Michaelis-Menten; details: 4 mM GSH; 100 mM KPi pH 6.5; 30 °C
purified protein [5] = substrate: CCCCCC(O)/C=C/C=O; test: purified protein; details: 0.5 mM GSH, 100 mM KPi pH 6.5, 30 °C
purified protein [6] = substrate: S=C=NCCc1ccccc1; test: purified protein; details: 4 mM GSH, 100 mM KPi pH 6.5, 30 °C
purified protein [7] = substrate: CC(=O)Oc1ccc([N+](=O)[O-])cc1; test: purified protein; details: 4 mM GSH, 100 mM KPi pH 6.5, 30 °C

| Molecule | Ki (AmGSTD1 [1]) [µM] | IC50 (AmGSTD1 [2]) [µM] | other results |
| --- | --- | --- | --- |
| O=C(O)COc1ccc(Cl)cc1Cl [2,4-D] | 41.4 | 1010 ± 56 |  |
| O=Cc1cccc(Oc2ccccc2)c1 [3-phenoxybenzaldehyde] | 302 |  |  |
| O=S(=O)(O)c1cccc2cccc(Nc3ccccc3)c12 [ANS] |  |  | Kd (AmGSTD1 [3]): 2.09 ± 0.102 µM |
| O=[N+]([O-])c1ccc(Cl)c([N+](=O)[O-])c1 [CDNB] | 49.6 | 1220 ± 55 | Km (AmGSTD1 [4]): 525 ± 70 µM |
| CCCN=C=S [PITC] |  |  | Km (AmGSTD1 [4]): 1100 ± 140 µM |
| Oc1nc(Cl)c(Cl)cc1Cl [TCP] | 25 | 613 ± 27 |  |
| C=C(CC)C(=O)c1ccc(OCC(=O)O)c(Cl)c1Cl [ethacrynic acid] | 41.5 | 1020 ± 40 |  |
| O=[N+]([O-])NC1=NCCN1Cc1ccc(Cl)nc1 [imidacloprid] | 130 |  |  |
| CCCCC(C#N)(Cn1cncn1)c1ccc(Cl)cc1 (stereo not shown) [myclobutanil] | 148 |  |  |
| O=C(O)COc1nc(Cl)c(Cl)cc1Cl [triclopyr] | 76.1 | 1860 ± 190 |  |
| B1 |  |  | Km (purified protein [5]): 106 ± 34 µM; kcat (purified protein [5]): 0.345 ± 0.0433 s⁻¹; Km (purified protein [6]): 819 ± 100 µM; kcat (purified protein [6]): 3.93 ± 0.2 s⁻¹; Km (purified protein [7]): 1160 ± 90 µM; kcat (purified protein [7]): 6.7 ± 0.233 s⁻¹ |
